Source: US5508269A, “Aminoglycoside formulation for aerosolization” (priority 1994, dated 1996)
In brackets after ≈: the same amount, converted by molar mass. Several values for one entry are separate records, joined by “and”; a condition that tells them apart may be missing. Identical values can stand only once. Like-named read-outs stand apart in the source and are kept apart here.

What was measured:
[1] = cited from earlier work; for health of CF patients (in words): aerosol administration, carbenicillin and gentamicin, twenty CF patients, Lancet 1981
[2] = test system: Pseudomonas aeruginosa; assay: MIC of tobramycin for P. aeruginosa isolates from sputum of CF patients; assay type: cell-based; conditions: for # of Patients (isolate with maximum density) / Cumulative Frequency (isolate with maximum density): most common isolate; for Cumulative Frequency (isolate with maximum MIC): most resistant isolate
Protocol: This study was a one-year review of all microbiologic records at Children's Hospital in Seattle. All positive Pseudomonas aeruginosa culture data were collated that occurred in patients with Cystic Fibrosis. If multiple cultures from a single individual had been obtained, the first culture was taken as representative.
MIC90 is the concentration of the drug which inhibits 90% of Pseudomonas aeruginosa isolates. Sputum samples from CF patients were cultured to produce individual colony forming units (CFUs). The MIC was then determined for individual CFUs. CFUs were considered different isolates if their MICs were different.

[3] = clinical; assay type: in vivo, CF patients; conditions: for Sputum Tobramycin Concentrations / Serum Tobramycin: Baseline; for Sputum Tobramycin Concentrations: per subject or mean line; for Serum Tobramycin / concentration at 1 h / concentration at 2 h: single subjects 001-005 in order; for concentration at 10 min / concentration at 1 h / concentration at 2 h: human, inhaled or intranasal, 300 mg; for concentration at 1 h: 1 hour after aerosol; for concentration at 2 h: 2 hours after aerosol
Text: The doses were separated by at least 2 days and not more than 5 days.

[4] = assay type: in vivo, CF patients; conditions: for ± % change FEV1: 30 min after aerosol, 300 mg in 5 ml 1/4 NS, single subjects 001-005 in order
Protocol: The doses were separated by at least 2 days and not more than 5 days. Peak serum and sputum concentrations were assessed and results are seen in Tables 5 and 6.
(§1) Sixty patients were enrolled. Each patient received, in random order, one administration from each nebulizer delivery system. Each aerosol administration was separated by a minimum of 48 hr. […] Airway irritation and acute bronchospasm were assessed by measuring spirometry immediately prior to and 30 min post-completion of aerosol administration. A decrease in FEV1>15% in the 30 min spirometry test was considered evidence of bronchospasm.

[5] = Clinical Trial II, sputum tobramycin levels with three nebulizers; assay type: in vivo, patients with cystic fibrosis; conditions: for sputum tobramycin level, grand mean: 20 patients
Protocol: This was an open label, multicenter, randomized, cross-over three arm study. Each arm was different nebulizer delivery system. Two arms deliver the same tobramycin formulation.
2. […] The number of inhalations required as recorded.
3. […] The number of inhalations required was recorded.
as §1, with “Sixty patients were enrolled.” left out
Immediately after completing the aerosol therapy, the subject rinsed with 30 ml of normal saline through the mount, gargled for 5-10 seconds and expectorated the rinse. This was repeated for a total of three rinses. Sputum specimens were collected at 10 minutes after rinsing oral cavity and 2 hours after completion of the aerosol drug administration. […] Spirometry was obtained 30 minutes following completion of the aerosol drug administration. Following the last aerosol treatment of the study, patients received a brief physical exam after post-spirometry has been measured.

[6] = Accelerated stability study at 40° C; assay type: physicochemical; conditions: pH greater than 7.0
Text: The higher temperature was chosen to accelerate any degradation process. […] Color was examined by KS scale.

[7] = Preliminary pharmacokinetics of tobramycin in sputum after aerosol; assay type: in vivo, patients with CF; conditions: 20 mg/ml in 30 ml half normal saline; for Cmax: Ultraneb 99, 200 inhalations, twenty patients
Protocol: These levels ranged from 310.4 μg/gm to 5,941 μg/gm, with median level at 1,606 μg/gm). The sputum levels declined rapidly after 30 minutes, reaching a minimum at four hours.

[8] = test system: Pseudomonas aeruginosa; assay: Previously studied 80 mg doses of tobramycin; assay type: in vivo, patients; conditions: initially
Text: If any degree of drug resistance developed, only a small percentage of patients would be effectively treated.

[9] = test system: P. aeruginosa; conditions: cited from earlier work
[10] = cited from earlier work
[11] = cited from earlier work; remark: listed apart in the source
[12] = test system: Pseudomonas aeruginosa; conditions: Pedia Pulmonol. 6:91-8 (1989); cited from earlier work
[13] = Sidestream, 300 mg in 5 ml 1/4 NS
[14] = serum, Serum Tobramycin, Pari LC, 300 mg in 5 ml 1/4 NS

CC1(C)S[C@@H]2[C@H](NC(=O)C(C(=O)O)c3ccccc3)C(=O)N2[C@H]1C(=O)O (stereo partly shown) [carbenicillin]
health of CF patients (in words) [1]: can improve the health of CF patients

NC[C@H]1O[C@H](O[C@H]2[C@H](O)[C@@H](O[C@H]3O[C@H](CO)[C@@H](O)[C@H](N)[C@H]3O)[C@H](N)C[C@@H]2N)[C@H](N)C[C@@H]1O [tobramycin]
share of isolates whose MIC is exceeded approximately ten-fold by a sputum level of 128 μg/gm ([2]; 128 μg/gm sputum level approximately ten-fold greater than MIC): 90%
share of isolates whose MIC is reached by a sputum level of 128 μg/gm ([2]; 128 μg/gm sputum level greater than or equal to MIC): 98%
# of Patients (isolate with maximum density) ([2]; MIC 1 μg/ml, n=58): 9
Cumulative Frequency (isolate with maximum density) ([2]; MIC 1 μg/ml, n=58): 78%
Cumulative Frequency (isolate with maximum MIC) ([2]; MIC 1 μg/ml, n=58): 67%
# of Patients (isolate with maximum density) ([2]; MIC 2 μg/ml, n=58): 3
Cumulative Frequency (isolate with maximum density) ([2]; MIC 2 μg/ml, n=58): 83%
Cumulative Frequency (isolate with maximum MIC) ([2]; MIC 2 μg/ml, n=58): 75%
# of Patients (isolate with maximum density) ([2]; MIC 4 μg/ml, n=58): 2
Cumulative Frequency (isolate with maximum density) ([2]; MIC 4 μg/ml, n=58): 86%
Cumulative Frequency (isolate with maximum MIC) ([2]; MIC 4 μg/ml, n=58): 83%
# of Patients (isolate with maximum density) ([2]; MIC 8 μg/ml, n=58): 2
Cumulative Frequency (isolate with maximum density) ([2]; MIC 8 μg/ml, n=58): 90%
Cumulative Frequency (isolate with maximum MIC) ([2]; MIC 8 μg/ml, n=58): 86%
# of Patients (isolate with maximum density) ([2]; MIC 16 μg/ml, n=58): 2
Cumulative Frequency (isolate with maximum density) ([2]; MIC 16 μg/ml, n=58): 93%
Cumulative Frequency (isolate with maximum MIC) ([2]; MIC 16 μg/ml, n=58): 90%
# of Patients (isolate with maximum density) ([2]; MIC 32 μg/ml, n=58): 1
Cumulative Frequency (isolate with maximum density) ([2]; MIC 32 μg/ml, n=58): 95%
Cumulative Frequency (isolate with maximum MIC) ([2]; MIC 32 μg/ml, n=58): 93%
# of Patients (isolate with maximum density) ([2]; MIC 64 μg/ml, n=58): 1
Cumulative Frequency (isolate with maximum density) ([2]; MIC 64 μg/ml, n=58): 97%
Cumulative Frequency (isolate with maximum MIC) ([2]; MIC 64 μg/ml, n=58): 95%
# of Patients (isolate with maximum density) ([2]; MIC 128 μg/ml, n=58): 2
Cumulative Frequency (isolate with maximum density) ([2]; MIC 128 μg/ml, n=58): 98%
Cumulative Frequency (isolate with maximum MIC) ([2]; MIC 128 μg/ml, n=58): 98%
# of Patients (isolate with maximum density) ([2]; MIC 256 μg/ml, n=58): 1
Cumulative Frequency (isolate with maximum density) ([2]; MIC 256 μg/ml, n=58): 100%
Cumulative Frequency (isolate with maximum MIC) ([2]; MIC 256 μg/ml, n=58): 100%
# of Patients (isolate with maximum density) ([2]; MIC .25 μg/ml, n=58): 26
Cumulative Frequency (isolate with maximum density) ([2]; MIC .25 μg/ml, n=58): 45%
Cumulative Frequency (isolate with maximum MIC) ([2]; MIC .25 μg/ml, n=58): 36%
# of Patients (isolate with maximum density) ([2]; MIC .5 μg/ml, n=58): 10
Cumulative Frequency (isolate with maximum density) ([2]; MIC .5 μg/ml, n=58): 63%
Cumulative Frequency (isolate with maximum MIC) ([2]; MIC .5 μg/ml, n=58): 53%
MIC ([2]; Pseudomonas aeruginosa): 128 µg/mL
inhibition at 128 µg/mL ([2]; Pseudomonas aeruginosa, read-out: inhibition of most resistant and most common isolates): 98%
MIC ([2]; Table 3: most tobramycin-resistant isolate of each patient, n=58, number of patients on same line): .25 µg/mL and .5 µg/mL and 1 µg/mL and 2 µg/mL and 4 µg/mL and 8 µg/mL and 16 µg/mL and 32 µg/mL and 64 µg/mL and 256 µg/mL
MIC ([2]; Table 4: most common isolate (maximum density) of each patient, n=58, number of patients on same line): .25 µg/mL and .5 µg/mL and 1 µg/mL and 2 µg/mL and 4 µg/mL and 8 µg/mL and 16 µg/mL and 32 µg/mL and 64 µg/mL and 128 µg/mL and 256 µg/mL
Sputum Tobramycin Concentrations ([3]; Pari LC, 300 mg in 5 ml 1/4 NS): bql (< 20 μg/gm)
Serum Tobramycin ([3]; Pari LC, 300 mg in 5 ml 1/4 NS): not detected
achievement of target sputum concentration (in words) ([3]; Sidestream and Pari LC, target 128-1000 μg/g, 300 mg in 5 ml 1/4 NS): able to achieve a target concentrations of tobramycin in sputum
Sputum Tobramycin Concentrations [3, 13]: bql (< 20 μg/gm)
Serum Tobramycin [3, 13]: not detected
concentration at 10 min ([3]; in vivo, Sidestream, 10 min, 5 subjects): 527000 ± 586000 ng/g
concentration at 1 h [3, 14]: 500 ng/mL
concentration at 2 h [3, 14]: 400 ng/mL
concentration at 1 h ([3]; serum, Serum Tobramycin, Sidestream, 300 mg in 5 ml 1/4 NS): 200 ng/mL
concentration at 10 min ([3]; sputum, 300 mg in 5 ml of 60 mg/ml in 1/4 NS, read-out: sputum concentration achieved (target concentration)): > 128000 ng/g
concentration at 10 min ([3]; sputum, Sputum Tobramycin Concentrations, Mean/Std Dev, Pari LC, 10 min, 5 subjects): 811000 ± 677000 ng/g
concentration at 2 h ([3]; sputum, Sputum Tobramycin Concentrations, Sidestream, 300 mg in 5 ml 1/4 NS): 57500 ng/g
safety of dosage (in words) ([4]; 300 mg in 5 ml of 60 mg/ml in 1/4 NS): extremely safe
± % change FEV1 ([4]; Pari LC): -1.2% and 1.2% and -0.6% and -2% and -5%
± % change FEV1 ([4]; Sidestream): -2.2% and 0.0% and -7.6% and -1%
sputum tobramycin level, grand mean ([5]; Pari LC, 0, 300 mg in 5 ml 0.225 NS): 0 µg
sputum tobramycin level, grand mean ([5]; Pari LC, 10 min, 300 mg in 5 ml 0.225 NS): 639.1 µg
sputum tobramycin level, grand mean ([5]; Pari LC, 1 hr, 300 mg in 5 ml 0.225 NS): 117.0 µg
sputum tobramycin level, grand mean ([5]; Pari LC, 2 hr, 300 mg in 5 ml 0.225 NS): 77.6 µg
sputum tobramycin level, grand mean ([5]; Sidestream, 0 hr, 300 mg in 5 ml 0.225 NS): 0 µg
sputum tobramycin level, grand mean ([5]; Sidestream, 10 min, 300 mg in 5 ml 0.225 NS): 465.3 µg
sputum tobramycin level, grand mean ([5]; Sidestream, 1 hr, 300 mg in 5 ml 0.225 NS): 75.7 µg
sputum tobramycin level, grand mean ([5]; Sidestream, 2 hr, 300 mg in 5 ml 0.225 NS): 88.8 µg
sputum tobramycin level, grand mean ([5]; Ultra Neb, 0 hr, 600 mg in 30 ml 0.45% NS): 0 µg
sputum tobramycin level, grand mean ([5]; Ultra Neb, 10 min, 600 mg in 30 ml 0.45% NS): 1335.7 µg
sputum tobramycin level, grand mean ([5]; Ultra Neb, 1 hr, 600 mg in 30 ml 0.45% NS): 360.0 µg
sputum tobramycin level, grand mean ([5]; Ultra Neb, 2 hr, 600 mg in 30 ml 0.45% NS): 158.8 µg
concentrations delivered to the endobronchial space (in words) ([5]; formulation used with a jet nebulizer): in the efficacious range
endobronchial concentration with half dosage (in words) ([5]; human, in vivo): sufficient to achieve therapeutically effective concentration of tobramycin in the endobronchial space
degradation of tobramycin (in words) [6]: degradation of tobramycin occurs
time of minimum sputum level ([7]; Ultraneb 99): four
Cmax ([7]; human, sputum, inhaled or intranasal, read-out: peak sputum level, median): 1.61e+06 ng/g
Cmax ([7]; human, sputum, inhaled or intranasal, read-out: peak sputum levels, range): 310000 to 5.94e+06 ng/g
Tmax ([7]; human, sputum, inhaled or intranasal, Ultraneb 99, read-out: time of peak sputum levels after therapy): 10 to 30 min
share of patients in whom dose would be predicted to be efficacious [8]: sixty to seventy
reduction in the density of P. aeruginosa in sputum, factor ([9]; aerosolized, all three 28-day periods): 100
improvement with aerosolized treatment (in words) ([9]; entire three-period study): significant improvement
solubility [10]: 160 mg/mL (≈ 342 mM)
binding by sputum [11]: up to 90%
treatment of exacerbations in CF (in words) ([1]; parenteral, short period of time): successfully treat exacerbations which occur in patients with CF
efficacy of 80 mg doses (in words) [12]: reported effective

gentamicin
health of CF patients (in words) [1]: can improve the health of CF patients
